What was measured:
Type in all cases: biochemical
[1] = biological target: Sorghum halepense EPSPS, native, SEQ ID NO:8 (Sorghum halepense, UniProt H6T5X2); assay: EPSPS substrate saturation kinetics, native sorghum
Procedure: EPSPS activity was determined by quantifying the phosphate generated from the EPSPS reaction. Release of inorganic phosphate was coupled to reaction with 2-amino-6-mercapto-7-methylpurine ribonucleoside, catalyzed by purine-nucleoside phosphorylase (M R Webb, Proc. Natl. Acad. Sci. 89:4884-4887, 1992). The absorbance change that occurs was monitored at 360 nm, where the extinction is 11,200 M^−1 cm^−1, with a Spectramax plate reader (Molecular Devices). To determine kinetic parameters, the varied substrate was present at seven concentrations (the eighth being the blank, containing no substrate) ranging from 4 to 400 uM and the unvaried substrate present at saturation. […] Reactions were monitored with a Spectramax plate reader. […] KI was then calculated from the following form of the Michaelis-Menten equation for competitive inhibition: KI=KM[I]/(KM app−KM) KM approximates the dissociation constant of the enzyme-substrate complex while kcat is the rate of conversion of substrate to product when the substrate concentration is saturating. kcat/KM is a widely accepted parameter for catalytic efficiency when substrate concentration is low (˜KM). […] The parameter kcat/KM×KI is used to quantify both catalytic efficiency and insensitivity and thus the overall fitness of the enzyme. […]

[2] = biological target: Zea mays EPSPS variant 4R (Zea mays, UniProt O24566, A3R); assay: EPSPS reaction rate with or without 10 uM glyphosate, 4R; settings: pH 7; read-out: Reaction rate with 10 μM glyph, % no glyph; note: 50 µM PEP and S3P
Sequence of Zea mays EPSPS variant 4R (O24566 entry or part of it A3R): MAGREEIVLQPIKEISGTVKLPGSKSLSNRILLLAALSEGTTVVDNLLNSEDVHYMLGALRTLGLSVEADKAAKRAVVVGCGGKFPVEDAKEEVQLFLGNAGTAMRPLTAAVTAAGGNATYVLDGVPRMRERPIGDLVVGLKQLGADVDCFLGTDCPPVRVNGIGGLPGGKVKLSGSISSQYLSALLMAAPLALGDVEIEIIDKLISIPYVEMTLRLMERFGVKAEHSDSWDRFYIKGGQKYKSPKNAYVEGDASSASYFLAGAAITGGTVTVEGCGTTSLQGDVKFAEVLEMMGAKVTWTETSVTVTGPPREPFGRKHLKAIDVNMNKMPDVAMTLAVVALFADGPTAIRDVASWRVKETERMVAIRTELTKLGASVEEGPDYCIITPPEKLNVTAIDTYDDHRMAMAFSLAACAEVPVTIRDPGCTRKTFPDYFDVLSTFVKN

[3] = biological target: T1, Zea mays EPSPS, native, SEQ ID NO:2 (Zea mays, UniProt O24566); assay: Rapid two-rate method for (kcat/KM)*KI (30 uM PEP, with or without 1 mM glyphosate), native maize; settings: Zm native, [E] 0.007 uM, [Gly] 0.5 uM
T1 construct: E. coli BL21(DE3), Ni-NTA purified
T1 sequence (O24566 with tags, fused parts or gaps): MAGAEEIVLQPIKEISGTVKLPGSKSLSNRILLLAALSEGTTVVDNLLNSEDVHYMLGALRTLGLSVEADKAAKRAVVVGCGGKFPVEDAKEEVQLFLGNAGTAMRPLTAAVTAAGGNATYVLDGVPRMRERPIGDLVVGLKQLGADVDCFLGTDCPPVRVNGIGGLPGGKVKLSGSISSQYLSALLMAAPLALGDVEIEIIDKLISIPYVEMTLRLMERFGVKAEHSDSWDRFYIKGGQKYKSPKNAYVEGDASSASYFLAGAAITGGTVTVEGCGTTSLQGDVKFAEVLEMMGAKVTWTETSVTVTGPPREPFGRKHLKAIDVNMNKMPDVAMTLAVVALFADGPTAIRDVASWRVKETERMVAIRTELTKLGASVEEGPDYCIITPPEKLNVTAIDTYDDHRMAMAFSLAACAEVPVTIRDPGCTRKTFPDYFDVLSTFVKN
From the text: In the Michaelis-Menten equation for steady state reaction velocity with competitive inhibition, the term (kcat/KM)*KI cannot be isolated due to the KM and [S] terms in the denominator. However, if two rate measurements are made at different inhibitor concentrations, those terms can be eliminated by subtraction and (kcat/KM)*KI isolated, as follows:
[formula] where v0 and v1 are initial velocities without and with inhibitor but at the same substrate and enzyme concentrations. Although Equations 2 and 3 are equally valid, to generate the data in Table 1, rate measurement was performed with and without inhibitor using Equation 3. Source of Reagents, Enzyme and Variants
EPSPS activity was determined by quantifying the phosphate generated by the reaction. Release of phosphate was coupled to reaction with MESG, catalyzed by purine-nucleoside phosphorylase, using standard methods. The absorbance change that occurs was monitored continuously at 360 nm, where the extinction is 11,200 M-1 cm-1, with a Spectramax plate reader (Molecular Devices). […] The enzyme concentration was adjusted so as to generate sufficient signal without exceeding the limit for linear initial reaction rates. […]
There are several practical considerations for accurately estimating (kcat/KM)*KI with the rapid method. […] Conditions can be set so that variants with a pre-determined minimal fitness level are accurately quantified. […]

Sequence of Sorghum halepense EPSPS, native, SEQ ID NO:8 (H6T5X2 entry or part of it): as the sequence (O24566 entry or part of it A3R) above, with M1A, R4A, R61N, A72V, V161I, E313Q counted along it

O=C(O)CNCP(=O)(O)O [glyphosate, N-phosphonomethylglycine]
Ki [1]: 200 nM
(kcat/KM)*KI ([1]; PEP as substrate, glyphosate as inhibitor): 33
activity at 10 µM [2]: 7.38%
(kcat/KM)*KI [3]: 11

— US11549123B2, “Plant EPSP synthases and methods of use” (PIONEER HI-BRED INTERNATIONAL, INC., priority 2015, dated 2023)
